Measured values from patent US20070020298A1, “Inhalant formulation containing sulfoalkyl ether gamma-cyclodextrin and corticosteroid” (priority 2003, published 2007).
Read-outs that look alike come from different tables or passages of the source.

Key:
[1] = Stability of fluticasone propionate in aqueous SBE6.1-γ-CD solution by HPLC (Example 13); type: physicochemical; conditions: for Stability by HPLC: 240 μg/mL in 10% SBE-γ-CD
Description: SBE-γ-CD is suitable for stabilizing corticosteroids in aqueous solutions. A stability study was conducted using fluticasone propionate in aqueous solutions stored at 25° C. or 40° C. having a pH of 4.5 or 6.0.
Fluticasone propionate. A citrate buffer solution at a pH of 4.5 was prepared by mixing various portions of 0.003 M citric acid with 0.003 M of trisodium citrate. A phosphate buffer solution at a pH of 6.0 was prepared by mixing various portions of 0.003 M monobasic sodium phosphate with 0.003 M of dibasic sodium phosphate. These stock solutions contained 10% w/v SBE-Gamma (D.S.=6.1). An excess of fluticasone propionate was added to the vials and equilibrated on a rocker for three days. The samples were then filtered using a PVDF 0.22 μm syringe filter. Aliquots of the solutions were placed into clear glass 2 mL serum vials with aluminum crimp caps and daikyo flurotec septums, and stored at 25° C. and 40° C. Control samples were stored at 5° C. but are not reported here. HPLC analysis of the samples was performed initially, (at time 0), and after 30, 60, 90, and 120 days storage. A stability-indicating HPLC method was used.

[2] = Stability of mometasone furoate in aqueous SBE6.1-γ-CD solution by HPLC (Example 13); type: physicochemical; conditions: for Stability by HPLC: 240 μg/mL in […] SBE-γ-CD
Description: A similar study was conducted for mometasone furoate except that a pH of 3.5 or 4.5 was used.
Mometasone furoate. Citrate buffer solutions at a pH of 3.5 and 4.5 were prepared by mixing various portions of 3 mM citric acid with 3 mM sodium citrate. […] An excess of mometasone furoate was added to the vials and equilibrated on a rocker for three days. The samples were then filtered using a PVDF 0.22 μm syringe filter. Aliquots of the solutions were placed into serum vials with rubber stoppers and aluminum crimp seal caps, and stored at 25° C. and 40° C. Control samples were stored at 5° C. […] A stability-indicating HPLC method was used.

[3] = nasal spray in aqueous sulfobutylether-β-cyclodextrin buffer, healthy volunteers; cited from earlier work
[4] = during the time period of observation, concentrations typically used to solubilize pharmaceutical formulations; cited from earlier work

Molecule: CCC(=O)O[C@]1(C(=O)CO)[C@@H](C)C[C@H]2[C@@H]3CCC4=CC(=O)C=C[C@]4(C)[C@@]3(Cl)[C@@H](O)C[C@@]21C [Beclomethasone 17-monopropionate, beclomethasone 17-monopropionate]
- Solubility of beclomethasone form (0.04 M SBE3.4 γ-CD): 0.04 M → 10621.6 μg/mL
- Solubility of beclomethasone form (0.04 M SBE5.24 γ-CD): 0.04 M → 9500.8 μg/mL
- Solubility of beclomethasone form (0.04 M SBE6.1 γ-CD): 0.04 M → 11666.9 μg/mL
- Solubility of beclomethasone form (0.04 M SBE6.7 β-CD): 0.04 M → 6799.6 μg/mL
- Solubility of beclomethasone form (0.04 M SBE7.5 γ-CD): 0.04 M → 8539.1 μg/mL
- Solubility of beclomethasone form (0.04 M γ-CD): 0.04 M → 136.9 μg/mL

Molecule: CCC(=O)OCC(=O)[C@@]1(O)[C@@H](C)C[C@H]2[C@@H]3CCC4=CC(=O)C=C[C@]4(C)[C@@]3(Cl)[C@@H](O)C[C@@]21C [Beclomethasone 21-monopropionate, beclomethasone 21-monopropionate]
- Solubility of beclomethasone form (0.04 M SBE3.4 γ-CD): 0.04 M → 172.6 μg/mL
- Solubility of beclomethasone form (0.04 M SBE5.24 γ-CD): 0.04 M → 139.8 μg/mL
- Solubility of beclomethasone form (0.04 M SBE6.1 γ-CD): 0.04 M → 153.8 μg/mL
- Solubility of beclomethasone form (0.04 M SBE6.7 β-CD): 0.04 M → 50.6 μg/mL
- Solubility of beclomethasone form (0.04 M SBE7.5 γ-CD): 0.04 M → 122.4 μg/mL
- Solubility of beclomethasone form (0.04 M γ-CD): 0.04 M → 9.4 μg/mL

Molecule: CCC(=O)O[C@]1(C(=O)SCF)[C@H](C)C[C@H]2[C@@H]3C[C@H](F)C4=CC(=O)C=C[C@]4(C)[C@@]3(F)[C@@H](O)C[C@@]21C [Fluticasone propionate, fluticasone propionate]
- Stability by HPLC ([1]; pH = 4.5/25° C., 1 Month): 97.88 Area %
- Stability by HPLC ([1]; pH = 4.5/25° C., 2 Months): 98.15 Area %
- Stability by HPLC ([1]; pH = 4.5/25° C., 3 Months): 97.74 Area %
- Stability by HPLC ([1]; pH = 4.5/25° C., 4 Months): 97.36 Area %
- Stability by HPLC ([1]; pH = 4.5/25° C., Initial): 97.99 Area %
- Stability by HPLC ([1]; pH = 4.5/40° C., 1 Month): 97.46 Area %
- Stability by HPLC ([1]; pH = 4.5/40° C., 2 Months): 97.75 Area %
- Stability by HPLC ([1]; pH = 4.5/40° C., 3 Months): 97.41 Area %
- Stability by HPLC ([1]; pH = 4.5/40° C., 4 Months): 96.56 Area %
- Stability by HPLC ([1]; pH = 4.5/40° C., Initial): 97.84 Area %
- change in the amount of fluticasone propionate ([1]; after a period of 4 months in SBE-γ-CD solution): little to no change
- T90 ([1]; at both pHs (4.5 and 6.0)): greater than five years
- estimated shelf-life ([1]; fluticasone propionate formulation of the invention): greater than two years

Molecule: C[C@@H]1C[C@H]2[C@@H]3CCC4=CC(=O)C=C[C@]4(C)[C@@]3(Cl)[C@@H](O)C[C@]2(C)[C@@]1(OC(=O)c1ccco1)C(=O)CCl [Mometasone furoate, mometasone furoate]
- Stability by HPLC ([2]; pH = 3.5/25° C., 1 Month): 99.74 Area %
- Stability by HPLC ([2]; pH = 3.5/25° C., 1 Week): 99.82 Area %
- Stability by HPLC ([2]; pH = 3.5/25° C., 2 Months): 99.73 Area %
- Stability by HPLC ([2]; pH = 3.5/25° C., 2 Weeks): 99.79 Area %
- Stability by HPLC ([2]; pH = 3.5/25° C., 3 Months): 99.68 Area %
- Stability by HPLC ([2]; pH = 3.5/25° C., 6 Months): 99.36 Area %
- Stability by HPLC ([2]; pH = 3.5/25° C., Initial): 99.72 Area %
- Stability by HPLC ([2]; pH = 3.5/40° C., 1 Month): 99.10 Area %
- Stability by HPLC ([2]; pH = 3.5/40° C., 1 Week): 99.72 Area %
- Stability by HPLC ([2]; pH = 3.5/40° C., 2 Months): 98.56 Area %
- Stability by HPLC ([2]; pH = 3.5/40° C., 2 Weeks): 99.55 Area %
- Stability by HPLC ([2]; pH = 3.5/40° C., 3 Months): 97.97 Area %
- Stability by HPLC ([2]; pH = 3.5/40° C., 6 Months): 94.97 Area %
- Stability by HPLC ([2]; pH = 3.5/40° C., Initial): 99.72 Area %
- Stability by HPLC ([2]; pH = 4.5/40° C., 1 Month): 99.19 Area %
- Stability by HPLC ([2]; pH = 4.5/40° C., 1 Week): 99.72 Area %
- Stability by HPLC ([2]; pH = 4.5/40° C., 2 Months): 98.65 Area %
- Stability by HPLC ([2]; pH = 4.5/40° C., 2 Weeks): 99.57 Area %
- Stability by HPLC ([2]; pH = 4.5/40° C., 3 Months): 97.85 Area %
- Stability by HPLC ([2]; pH = 4.5/40° C., 6 Months): 96.01 Area %
- Stability by HPLC ([2]; pH = 4.5/40° C., Initial): 99.76 Area %
- Stability by HPLC ([2]; pH = 4.5 @ 25° C., 1 Month): 99.73 Area %
- Stability by HPLC ([2]; pH = 4.5 @ 25° C., 1 Week): 99.82 Area %
- Stability by HPLC ([2]; pH = 4.5 @ 25° C., 2 Months): 99.71 Area %
- Stability by HPLC ([2]; pH = 4.5 @ 25° C., 2 Weeks): 99.81 Area %
- Stability by HPLC ([2]; pH = 4.5 @ 25° C., 3 Months): 99.62 Area %
- Stability by HPLC ([2]; pH = 4.5 @ 25° C., 6 Months): 99.47 Area %
- Stability by HPLC ([2]; pH = 4.5 @ 25° C., Initial): 99.76 Area %
- T90 ([2]; both pH's (3.5 and 4.5) at 25° C.): exceed two years
- estimated shelf-life ([2]; mometasone furoate formulation of the invention): greater than two years
- T90, stable for ([2]; pH 4.5, 25° C.): six to eight years

Molecule: Cc1ncc2n1-c1ccc(Cl)cc1C(c1ccccc1F)=NC2 [midazolam]
- side effects [3]: No serious side effects

Molecule: Sulfobutyl ether β-cyclodextrin [CAPTISOL]
- hemolytic behavior [4]: essentially no hemolytic behavior
